In patent publication US10689383B2, “Optionally fused heterocyclyl-substituted derivatives of pyrimidine useful for the treatment of inflammatory, metabolic, oncologic and autoimmune diseases” (NUEVOLUTION A/S, priority 2014, dated 2020) one finds IC50 data, which are given here for 28 molecules.

The test concerns the target T1, human RORγt (Ligand Binding Domain) (Homo sapiens, UniProt P51449).
T1 construct: purchased Crelux (Planegg, Germany) batch no PC5032-1
T1 sequence (P51449 269-508 limits assumed): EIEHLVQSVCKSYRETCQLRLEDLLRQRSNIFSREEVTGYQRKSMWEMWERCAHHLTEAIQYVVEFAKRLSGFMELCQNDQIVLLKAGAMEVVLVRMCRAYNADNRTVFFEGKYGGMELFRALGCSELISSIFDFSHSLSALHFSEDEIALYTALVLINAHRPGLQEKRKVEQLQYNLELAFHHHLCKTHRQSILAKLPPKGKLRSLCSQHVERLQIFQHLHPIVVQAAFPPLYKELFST
Nature of the test: Fluorescence Polarization (FP) Assay. The note with it: Fluorescence Polarization (FP) Assay; values given as upper bounds of activity ranges; read-out: FP activity range. As to the method: The activity of the compounds was evaluated using a Fluorescence Polarization (FP) Assay and, in most cases, a Th17 Assay and/or RORγ Reporter assay (also referred to as Gal4 assay). The FP assay is an in vitro assay monitoring binding within the ligand binding pocket. The RORγ and the Th17 assays are both cell-based assays monitoring functional activity of the compound assayed.
The total volume was 25 μl, in a black Perkin Elmer OptiPlate. As negative control, 1 μl DMSO was used. […] The probe is a fluorescently labeled (TAMRA) RORγt ligand identified by Nuevolution with a total molecular weight of 910 g/mole as shown in Graph A in FIG. 1.
A general note: In fluorescence polarisation assays a small probe gives low polarisation when free and higher when bound to something large.
Regarding `O=C(c1ccc(CNc2ncnc(N3CCCC3c3ccc(C(F)(F)F)cc3)c2F)cc1)N1CCOCC1` (stereo not shown) [Example 57, [4-[[[5-fluoro-6-[2-[4-(trifluoromethyl)phenyl]pyrrolidin-1-yl]pyrimidin-4-yl]amino]methyl]phenyl]-morpholino-methanone], the IC50 was below 10 µM.

Consider `OCC1CCN(c2ccc(CNc3ncnc(N4CCCC4c4ccc(C(F)(F)F)cc4)c3F)cn2)CC1` (stereo not shown) [Example 58, [1-[5-[[[5-fluoro-6-[2-[4-(trifluoromethyl)phenyl]pyrrolidin-1-yl]pyrimidin-4-yl]amino]methyl]-2-pyridyl]-4-piperidyl]methanol], for which the IC50 was below 10 µM.

As to `O=C1CCCN1c1ccc(CNc2ncnc(N3CCCC3c3ccc(C(F)(F)F)cc3)c2F)cc1` (stereo not shown) [Example 137, 1-[4-[[[5-fluoro-6-[2-[4-(trifluoromethyl)phenyl]pyrrolidin-1-yl]pyrimidin-4-yl]amino]methyl]phenyl]pyrrolidin-2-one], the IC50 was below 10 µM.

For `O=C1CC2(CCCN(c3ncnc(N4CCCC4c4ccc(C(F)(F)F)cc4)c3F)C2)CN1` (stereo not shown) [Example 134, 9-[5-fluoro-6-[2-[4-(trifluoromethyl)phenyl]pyrrolidin-1-yl]pyrimidin-4-yl]-3,9-diazaspiro[4.5]decan-2-one], the IC50 is below 10 µM.

As to `Cn1ccc(CNc2ncnc(N3CCCC3c3ccc(C(F)(F)F)cc3)c2F)c1` (stereo not shown) [Example 105, 5-fluoro-N-[(1-methylpyrrol-3-yl)methyl]-6-[2-[4-(trifluoromethyl)phenyl]pyrrolidin-1-yl]pyrimidin-4-amine], the IC50 was below 10 µM.

Consider `Cc1cccc(CNc2ncnc(N3CCCC3c3ccc(C(F)(F)F)cc3)c2F)n1` (stereo not shown) [Example 132, 5-fluoro-N-[(6-methyl-2-pyridyl)methyl]-6-[2-[4-(trifluoromethyl)phenyl]pyrrolidin-1-yl]pyrimidin-4-amine], for which the IC50 is below 10 µM.

Regarding `CS(=O)(=O)c1ccc(Cn2ccc3c(N4CCOC[C@@H]4c4ccc(OC(F)(F)F)cc4)ncnc32)cn1` [Example 329, (3S)-4-[7-[(6-methylsulfonyl-3-pyridyl)methyl]pyrrolo[2,3-d]pyrimidin-4-yl]-3-[4-(trifluoromethoxy)phenyl] morpholine], the IC50 is below 2 µM.

Take `O=C(O)Cc1ccc(CNc2ncnc(N3CCCC3c3ccc(C(F)(F)F)cc3)c2F)cc1` (stereo not shown) [Example 32, 2-[4-[[[5-fluoro-6-[2-[4-(trifluoromethyl)phenyl]pyrrolidin-1-yl]pyrimidin-4-yl]amino]methyl]phenyl]acetic acid]: the IC50 was below 0.5 µM.

With `CC(C)(C)C[C@@H](Nc1ncnc(N2CCC[C@@H]2c2ccc(C(F)(F)F)cc2)c1F)C(=O)O` [Example 325, (2R)-2-[[5-fluoro-6-[(2R)-2-[4-(trifluoromethyl)phenyl]pyrrolidin-1-yl]pyrimidin-4-yl]amino]-4,4-dimethyl-pentanoic acid], the IC50 is below 1 µM.

In the case of `O=C(O)c1ccc(CCNc2ncnc(N3CCCC3c3ccc(C(F)(F)F)cc3)c2F)cc1` (stereo not shown) [Example 120, 4-[2-[[5-fluoro-6-[2-[4-(trifluoromethyl)phenyl]pyrrolidin-1-yl]pyrimidin-4-yl]amino]ethyl]benzoic acid], the IC50 was below 10 µM.

Turning to `CCc1ccc(CN(C)c2ncnc(N3CCCC3c3ccc(C(F)(F)F)cc3)c2F)nc1` (stereo not shown) [Example 136, N-[(5-ethyl-2-pyridyl)methyl]-5-fluoro-N-methyl-6-[2-[4-(trifluoromethyl)phenyl]pyrrolidin-1-yl]pyrimidin-4-amine], the IC50 is below 2 µM.

On to `Oc1nnc(CNc2ncnc(N3CCCC3c3ccc(C(F)(F)F)cc3)c2F)o1` (stereo not shown) [Example 214, 5-(((5-fluoro-6-(2-(4-(trifluoromethyl)phenyl)pyrrolidin-1-yl)pyrimidin-4-yl)amino)methyl)-1,3,4-oxadiazol-2-ol], for which the IC50 is below 10 µM.

In the case of `CS(=O)(=O)c1ccc(CNc2ncnc(N3CCOC[C@@H]3c3ccc(C(F)(F)F)cc3)c2F)cn1` [Example 293, 5-fluoro-N-[(6-methylsulfonyl-3-pyridyl)methyl]-6-[(3S)-3-[4-(trifluoromethyl)phenyl]morpholin-4-yl]pyrimidin-4-amine], the IC50 was below 1 µM.

`CN1CC(CN(C)c2ncnc(N3CCCC3c3ccc(C(F)(F)F)cc3)c2F)CC1=O` (stereo not shown) [Example 135, 4-[[[5-fluoro-6-[2-[4-(trifluoromethyl)phenyl]pyrrolidin-1-yl]pyrimidin-4-yl]-methyl-amino]methyl]-1-methyl-pyrrolidin-2-one]: the IC50 is below 10 µM.

As to `O=C(O)C1(CNc2ncnc(N3CCOCC3c3ccc(C(F)(F)F)cc3)c2F)CCOCC1` (stereo not shown) [Example 268, 4-[[[5-fluoro-6-[3-[4-(trifluoromethyl)phenyl]morpholin-4-yl]pyrimidin-4-yl]amino]methyl]tetrahydropyran-4-carboxylic acid], the IC50 is below 10 µM.

Turning to `CC(C)(C)C[C@@H](Nc1ncnc(N2CCC[C@@H]2c2ccc(C(F)(F)F)cc2)c1F)C(N)=O` (single isomer, unassigned) [Example 5, (2R)-2-[[5-fluoro-6-[(2R)-2-[4-(trifluoromethyl)phenyl]pyrrolidin-1-yl]pyrimidin-4-yl]amino]-4,4-dimethyl-pentanamide or (2R)-2-[[5-fluoro-6-[(2S)-2-[4-(trifluoromethyl)phenyl]pyrrolidin-1-yl]pyrimidin-4-yl]amino]-4,4-dimethyl-pentanamide], the IC50 was below 0.5 µM.

Regarding `Cc1nn(C)cc1C1CCCN1c1ncnc(NCc2ccc(CC(N)=O)cc2)c1F` (stereo not shown) [Example 317, 2-[4-[[[6-[2-(1,3-dimethylpyrazol-4-yl)pyrrolidin-1-yl]-5-fluoro-pyrimidin-4-yl]amino]methyl]phenyl]acetamide], the IC50 is below 10 µM.

As for `CNC(=O)c1cccc(CNc2ncnc(N3CCCC3c3ccc(C(F)(F)F)cc3)c2F)c1` (stereo not shown) [Example 144, 3-[[[5-fluoro-6-[2-[4-(trifluoromethyl)phenyl]pyrrolidin-1-yl]pyrimidin-4-yl]amino]methyl]-N-methyl-benzamide], the IC50 is below 10 µM.

For the molecule `NC(=O)Cc1ccc(CNc2ncnc(N3C[C@H](F)C[C@H]3c3ccc(C(F)(F)F)cc3)c2F)cc1` (racemic) [Example 242, 2-[4-[[[5-fluoro-6-[(2S,4R)-4-fluoro-2-[4-(trifluoromethyl)phenyl]pyrrolidin-1-yl]pyrimidin-4-yl]amino]methyl]phenyl]acetamide AND 2-[4-[[[5-fluoro-6-[(2R,4S)-4-fluoro-2-[4-(trifluoromethyl)phenyl]pyrrolidin-1-yl]pyrimidin-4-yl]amino]methyl]phenyl]acetamide], the IC50 is below 2 µM.

`Cc1cnc(CNc2ncnc(N3CCCC3c3ccc(C(F)(F)F)cc3)c2F)o1` (stereo not shown) [Example 213, 5-fluoro-N-[(5-methyloxazol-2-yl)methyl]-6-[2-[4-(trifluoromethyl)phenyl]pyrrolidin-1-yl]pyrimidin-4-amine]: the IC50 was below 10 µM.

Take `O=S1(=O)CCC(CNc2ncnc(N3CCC[C@@H]3c3ccc(C(F)(F)F)cc3)c2F)C1` (stereo partly drawn) [Example 184, N-[(1,1-dioxothiolan-3-yl)methyl]-5-fluoro-6-[(2R)-2-[4-(trifluoromethyl)phenyl]pyrrolidin-1-yl]pyrimidin-4-amine]: the IC50 is below 0.5 µM.

Consider `Fc1c(NCC2CCC2)ncnc1N1CCCC1c1ccc(C(F)(F)F)cc1` (stereo not shown) [Example 151, N-(cyclobutylmethyl)-5-fluoro-6-[2-[4-(trifluoromethyl)phenyl]pyrrolidin-1-yl]pyrimidin-4-amine], for which the IC50 was below 10 µM.

For the molecule `CCC(C(=O)NCc1ccoc1C(N)=O)n1ccc2c(N3CCCC3c3ccc(-c4ccccc4)cc3)ncnc21` (stereo not shown) [Example 4, 3-[[2-[4-[2-(4-phenylphenyl)pyrrolidin-1-yl]pyrrolo[2,3-d]pyrimidin-7-yl]butanoylamino]methyl]furan-2-carboxamide], the IC50 was below 0.5 µM.

For `NC(=O)[C@@H](Cc1cc(F)c(F)cc1F)Nc1ncnc(N2CCCC2c2nc3ccccc3s2)c1F` (stereo partly drawn) [Example 9, (2R)-2-[[6-[2-(1,3-benzothiazo1-2-yl)pyrrolidin-1-yl]-5-fluoro-pyrimidin-4-yl]amino]-3-(2,4,5-trifluorophenyl)propanamide], the IC50 is below 0.5 µM.

Take `Fc1c(NCC2CCCC2)ncnc1N1CCC[C@@H]1c1ccc(C(F)(F)F)cc1` [Example 218, N-(cyclopentylmethyl)-5-fluoro-6-[(2R)-2-[4-(trifluoromethyl)phenyl]pyrrolidin-1-yl]pyrimidin-4-amine]: the IC50 was below 10 µM.

`NC(=O)C1(CNc2ncnc(N3CCOC[C@@H]3c3ccc(C(F)(F)F)cc3)c2F)CCCC1` [Example 249, 1-[[[5-fluoro-6-[(3S)-3-[4-(trifluoromethyl)phenyl]morpholin-4-yl]pyrimidin-4-yl]amino]methyl] cyclopentanecarboxamide]: the IC50 is below 10 µM.

Take `OCC1(CNc2ncnc(N3CCOC[C@@H]3c3ccc(C(F)(F)F)cc3)c2F)CC1` [Example 296, [1-[[[5-fluoro-6-[(3S)-3-[4-(trifluoromethyl)phenyl]morpholin-4-yl]pyrimidin-4-yl]amino]methyl]cyclopropyl] methanol]: the IC50 is below 10 µM.

On to `Fc1c(NCc2cccnc2)ncnc1N1CCCC1c1ccc(C(F)(F)F)cc1` (stereo not shown) [Example 141, 5-fluoro-N-(3-pyridylmethyl)-6-[2-[4-(trifluoromethyl)phenyl]pyrrolidin-1-yl]pyrimidin-4-amine], for which the IC50 is below 2 µM.
